Experimental data: publication PMC4949396, “The effects of apremilast on the QTc interval in healthy male volunteers: a formal, thorough QT study” (International Journal of Clinical Pharmacology and …, 2016)
Where two headings read alike, the source gives them in different places. Marks after values point to notes of the source that are not given here.

Experiments:
healthy male subjects [1] = assay: thorough QT/QTc study, 24-hour digital Holter ECG (QTc, HR, PR); conditions: for decrease of time-matched, baseline-adjusted LS mean PR interval (ΔΔPR): 2 hours postdose; for effect on the QT/QTc interval: overall conclusion of the study
Method: This was a single-center, randomized, crossover study with 4 treatments, 4 periods, and 4 sequences conducted in healthy male subjects. Apremilast (Otezla; Celgene Corporation, Summit, NJ, USA) was administered in a double-blind manner with matching placebo, and moxifloxacin was administered in an open-label manner. The core central electrocardiogram (ECG) laboratory staff, including those reading the ECGs, was blinded to treatment, sequence time, and subject identifiers.
The 4 treatments evaluated in this study included an apremilast-matched placebo administered twice daily (b.i.d.) for 9 doses (~ 5 days), a clinically relevant dose of apremilast 30 mg administered b.i.d. for 9 doses, a supratherapeutic dose of apremilast 50 mg administered b.i.d. for 9 doses, and placebo administered on days 1 – 4 followed by a single dose of moxifloxacin 400 mg on day 5. Subjects fasted for at least 8 hours before the morning dose or before the start of Holter monitoring on days –1 and 5.
ECGs were analyzed for ventricular HR, PR, QRS, RR, and QT intervals and morphological changes. Mean of the triplicate ECGs at each nominal time point was used for all reporting and analysis; however, individual values were used to calculate the correction coefficient (γ) for QTcI. The QTc corrections were individual correction by QTcI = QT/RR^γ, Fridericia’s by QTcF = QT/RR^0.33, and Bazett’s by QTcB = QT/RR^0.5. Individual correction coefficient, γ, was estimated using linear regression of log QT on log RR for each subject using all baseline ECG assessments collected before day 1 dosing in period 1 within a subject. Change from baseline was calculated as the average of the three predose assessments on day 1 of the corresponding treatment period subtracted from the value (i.e., QTc) on day 5 at a given time t. Double-delta (ΔΔ) values for various cardiac parameters (i.e., ΔΔQTcI, ΔΔQTcB, etc.) were determined as the change from baseline value relative to placebo at the same scheduled time.
At each time point, difference in least-squares (LS) means was estimated between the LS means of each apremilast dose and placebo (with placebo as reference). Two-sided 90% confidence intervals (CIs) were produced for the comparisons.
The effect of QTcI for moxifloxacin was assessed at 1, 1.5, 2, 3, and 4 hours postdose to assess assay sensitivity. At each time point, the ΔΔ value was estimated between the LS means of moxifloxacin and placebo. […] If at least one of the CIs completely exceeded 5 ms, then the assay was declared sensitive.
For secondary analyses, a Student’s t-test was performed comparing each dose of apremilast vs. placebo and between moxifloxacin and placebo at each time point. Two-sided 90% CIs were produced for the comparisons. The effect of apremilast on QTcF, QTcB, HR, PR, and QT was assessed using the same linear mixed model from the primary analysis. […] The model included treatment group, period, sequence, and baseline ECG interval as a covariate, and subject nested within sequence as a random effect.
If a subject experienced > 1 episode of a particular outlier event, the subject was counted only once for that event.

healthy male subjects [2] = assay: exploratory PK/PD relationship between ΔΔQTcI and plasma concentration (linear mixed-effect model); assay type: in vivo, human; conditions: for relationship between changes in QT/QTc interval and plasma concentration: in vivo; for estimated slope (SE) of ΔΔQTcI vs plasma concentration: linear regression, random effect model, pooled doses
Method: The PK/PD analysis was performed using a linear mixed-effect model to explore the relationship between the ΔΔQTcI and plasma concentrations for apremilast, M12, M14, and M16, and to estimate the population slope (β) and standard error of slope (SEβ). The expected maximum ΔΔQTcI effect for each dose and each analyte was estimated using the slope and average Cmax with one-sided upper limit 95% CIs.

healthy male subjects [3] = assay: safety assessments (adverse events, vital signs, laboratory tests); assay type: in vivo, human; conditions: up to doses of 50 mg twice daily
Method: Safety assessments were performed at clinic check-in, periodically throughout each treatment period, and at the end-of-study visit and included the measurement of vital signs, recording of standard 12-lead ECGs, collection of samples for clinical laboratory tests, and physical examinations. Adverse events (AEs) and concomitant medication use were assessed and recorded throughout the study.

hERG potassium channel = molecular target: T1, hERG potassium channel (Homo sapiens, UniProt Q12809); assay: voltage-clamp study of hERG current in HEK293 cells expressing hERG; assay type: cell-based
T1 construct: expressed in transfected cells; host or cells: HEK-293 cells stably expressing hERG
Text: This IC50 value is > 2 orders of magnitude greater than the maximum plasma concentration (Cmax) values observed in healthy male subjects and in PsA or rheumatoid patients at the highest doses studied. Prolongation of the QT interval is associated with a rare but dangerous ventricular arrhythmia, torsade de pointes, and drug-induced prolongation of the QT interval represents a significant risk. The current study was undertaken to provide definitive evaluation of the clinical potential for prolongation of the QT interval with apremilast.
Furthermore, a structure-activity relationship study has shown that the structure of a PDE4 inhibitor can be optimized for high-potency PDE4 inhibition and minimize or eliminate its affinity for hERG channel by targeted modification of pharmacophores. The structure of apremilast was optimized for PDE4 inhibition and minimal affinity for the hERG channel.

[4] = design: method as in PMID 26097790; conditions: 30 mg b.i.d., cited from earlier work
[5] = plasma pharmacokinetics on day 5 after multiple oral doses of apremilast in healthy male subjects; assay type: in vivo, human; conditions: for AUC / AUC0–τ, geometric mean (geometric CV%): τ 12 hours; for AUC: read-out: AUC0–τ, geometric mean (geometric CV%); for Tmax: read-out: tmax, median (minimum–maximum)
Method: PK parameters were derived using noncompartmental methods with WinNonlin® Professional version 5.1.2 (Pharsight Corporation, Mountain View, CA, USA). […] For determination of PK parameters (terminal elimination rate constant (Kel), time to maximum plasma concentration (tmax), and terminal half-life (t1/2)), plasma concentrations for apremilast and its major metabolites below the limit of quantitation (BLQ) were treated as missing except for the calculation of area under the plasma concentration-time curve (AUC). To calculate AUC, BLQ or missing concentrations in the beginning and end of profile were replaced with zero, and BLQ or missing concentrations in the middle of the profile were interpolated.
Blood samples were collected in lithium heparin tubes and plasma was separated. The plasma samples, fortified with Sorensen’s buffer (25 mM citrate, pH 1.5) containing amastatin 20 µM (1 : 1/v : v), were analyzed by two validated liquid chromatography/tandem mass spectrometry methods, one for determination of apremilast and the other for its metabolites M12 (CC-16166), M14 (CC-16793), and M16 (CC-16557).

[6] = design: method as in PMID 21859393; conditions: cited from earlier work
[7] = both apremilast doses, all time points
[8] = both apremilast doses, all values
[9] = patients with rheumatoid arthritis or PsA, n = 15
[10] = apremilast 50 mg b.i.d., day 5, plasma
[11] = male, human, oral, apremilast 30 mg b.i.d., day 5, plasma
[12] = male, human, oral, apremilast 50 mg b.i.d., day 5, plasma
[13] = apremilast 30 mg b.i.d., day 5, plasma

T1 sequence (Q12809 whole entry): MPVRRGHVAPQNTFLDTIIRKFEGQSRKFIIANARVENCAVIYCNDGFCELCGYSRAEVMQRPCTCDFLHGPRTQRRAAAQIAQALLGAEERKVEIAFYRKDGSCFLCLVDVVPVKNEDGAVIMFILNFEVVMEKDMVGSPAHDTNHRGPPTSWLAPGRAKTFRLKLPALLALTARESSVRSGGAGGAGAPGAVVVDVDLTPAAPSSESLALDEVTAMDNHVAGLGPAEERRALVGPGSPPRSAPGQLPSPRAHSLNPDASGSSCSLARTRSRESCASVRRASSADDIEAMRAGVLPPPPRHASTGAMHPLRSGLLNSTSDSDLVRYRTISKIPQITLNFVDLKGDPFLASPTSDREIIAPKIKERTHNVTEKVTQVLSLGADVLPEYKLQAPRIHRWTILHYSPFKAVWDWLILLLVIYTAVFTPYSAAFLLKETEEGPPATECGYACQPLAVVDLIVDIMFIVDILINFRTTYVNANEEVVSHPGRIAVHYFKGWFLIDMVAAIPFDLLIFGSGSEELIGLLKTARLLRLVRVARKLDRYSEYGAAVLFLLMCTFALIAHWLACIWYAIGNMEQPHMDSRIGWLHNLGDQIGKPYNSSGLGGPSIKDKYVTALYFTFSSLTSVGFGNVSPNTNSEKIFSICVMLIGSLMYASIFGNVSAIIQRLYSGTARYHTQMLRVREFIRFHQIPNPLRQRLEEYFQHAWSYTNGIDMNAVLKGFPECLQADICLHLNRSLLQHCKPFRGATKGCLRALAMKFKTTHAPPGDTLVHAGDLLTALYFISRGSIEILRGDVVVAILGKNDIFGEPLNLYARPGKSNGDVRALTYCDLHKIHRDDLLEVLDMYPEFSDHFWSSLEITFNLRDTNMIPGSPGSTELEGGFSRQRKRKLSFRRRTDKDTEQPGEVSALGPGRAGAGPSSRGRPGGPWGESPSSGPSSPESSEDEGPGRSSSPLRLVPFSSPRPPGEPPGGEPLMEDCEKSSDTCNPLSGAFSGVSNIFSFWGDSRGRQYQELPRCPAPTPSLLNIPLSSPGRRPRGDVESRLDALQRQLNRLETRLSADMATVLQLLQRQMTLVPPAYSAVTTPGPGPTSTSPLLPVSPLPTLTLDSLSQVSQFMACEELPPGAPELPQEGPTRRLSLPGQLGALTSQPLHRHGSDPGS

CCOc1cc([C@@H](CS(C)(=O)=O)N2C(=O)c3cccc(NC(C)=O)c3C2=O)ccc1OC [apremilast, (S)-N-[2-[1-(3-ethoxy-4-methoxyphenyl)-2-methanesulfonylethyl]-1,3-dioxo-2,3-dihydro-1H-isoindol-4-yl] acetamide]
LS mean ΔΔQTcI (healthy male subjects [1]; apremilast 30 mg b.i.d., day 5, all time points): –4.2 to 0.7 ms
increase of time-matched, baseline-adjusted LS mean HR (ΔΔHR) (healthy male subjects [1]; apremilast 30 mg dose, 2 hours after administration): 3.1 bpm
decrease of time-matched, baseline-adjusted LS mean PR interval (ΔΔPR) (healthy male subjects [1]; apremilast 30 mg dose): 2.8 ms
decrease of time-matched, baseline-adjusted LS mean PR interval (ΔΔPR) (healthy male subjects [1]; apremilast 50 mg dose): 3.5 ms
increase of time-matched, baseline-adjusted LS mean HR (ΔΔHR) (healthy male subjects [1]; apremilast 50 mg dose, 3 hours after administration): 4.4 bpm
LS mean ΔΔQTcI (healthy male subjects [1]; both apremilast doses (30 and 50 mg b.i.d.), all time points): < 1 ms
upper limit of two-sided 90% CI of ΔΔQTcB (healthy male subjects [1]; [7]): below 10 ms
upper limit of two-sided 90% CI of ΔΔQTcF (healthy male subjects [1]; [7]): below 10 ms
LS mean ΔΔQTcB (healthy male subjects [1]; [8]): < 5 ms
LS mean ΔΔQTcF (healthy male subjects [1]; [8]): < 1 ms
subjects with maximum on-treatment QT/QTc interval > 480 ms or change from baseline > 60 ms (healthy male subjects [1]; categorical analysis, while receiving apremilast): No subject
effect on the QT/QTc interval (healthy male subjects [1]): did not prolong the QT interval
relationship between changes in QT/QTc interval and plasma concentration (healthy male subjects [2]): No trend or relationship
estimated slope (SE) of ΔΔQTcI vs plasma concentration (healthy male subjects [2]): –0.0016 (0.0027)
safety and tolerability (healthy male subjects [3]): safe and well tolerated
Hill coefficient of hERG current inhibition (hERG potassium channel; HEK293 cells expressing hERG): 0.9
IC50 (hERG potassium channel; HEK293 cells expressing hERG, read-out: hERG current inhibition, estimated half maximal inhibitory concentration (IC50)): 184 µM
IC50 (hERG potassium channel; HEK293 cells expressing hERG, same value in mass units, read-out: hERG current inhibition, estimated IC50 (converted)): 184 µM
affinity for the hERG channel (hERG potassium channel; voltage-clamp, HEK-293 cells stably expressing hERG): low affinity
hERG IC50 relative to Cmax at the highest doses studied (hERG potassium channel; vs Cmax in healthy male subjects and PsA or rheumatoid patients): > 2 orders of magnitude
maximum AUC0–12 ([4]; PsA and psoriasis patients): 8,280 ng×h/mL
maximum Cmax ([4]; PsA and psoriasis patients): 981 ng/mL
geometric mean Cmax [4, 9]: 554 ng/mL
mean AUC0–12 [4, 9]: 3,670 ng×h/mL
increase of AUC with increasing dose ([5]; 50 mg b.i.d. vs 30 mg b.i.d.): ~ 1.5 times
increase of Cmax with increasing dose ([5]; 50 mg b.i.d. vs 30 mg b.i.d.): ~ 1.4 times
t1/2, geometric mean (geometric CV%) [5, 10]: 7.28 (29.1) h
AUC [5, 11]: 2260 ng·h/mL
half-life ([5]; male, human, oral, apremilast 30 mg b.i.d., day 5, plasma, read-out: t1/2, geometric mean (geometric CV%) (converted)): 6.41 h
Tmax [5, 11]: 2 h
AUC [5, 12]: 3450 ng·h/mL
Tmax [5, 12]: 2 h
Cmax ([5]; male, human, plasma, oral, 30 mg, apremilast 30 mg b.i.d., day 5, plasma, read-out: Cmax, geometric mean (geometric CV%)): 352 ng/mL
Cmax ([5]; male, human, plasma, oral, 50 mg, apremilast 50 mg b.i.d., day 5, plasma, read-out: Cmax, geometric mean (geometric CV%)): 507 ng/mL
Cmax ([5]; male, human, plasma, oral, 50 mg, healthy subjects, 50 mg b.i.d., read-out: maximum Cmax): 1060 ng/mL
half-life ([5]; male, human, plasma, oral, across both doses (30 and 50 mg b.i.d.), read-out: mean t1/2): 6 to 7 h
AUC(0-t) ([5]; male, human, plasma, oral, healthy subjects, 50 mg b.i.d., read-out: maximum AUC0–12): 9350 ng·h/mL
half-life ([6]; humans): 6 to 9 h

COc1c(N2C[C@@H]3CCCN[C@@H]3C2)c(F)cc2c(=O)c(C(=O)O)cn(C3CC3)c12 [moxifloxacin]
effect on the QT/QTc interval (healthy male subjects [1]): significantly increased the QT/QTc interval

O-des-methyl-[S]-CC-10004-glucuronide [M12]
relationship between changes in QT/QTc interval and plasma concentration (healthy male subjects [2]): No trend or relationship
estimated slope (SE) of ΔΔQTcI vs plasma concentration (healthy male subjects [2]): –0.0006 (0.0028)
t1/2, geometric mean (geometric CV%) [5, 13]: 12.18 (25.9)^c h
tmax, median (minimum–maximum) [5, 13]: 3.0 (1.0 – 12.0) h
AUC0–τ, geometric mean (geometric CV%) [5, 13]: 3,930 (23.9) ng×h/mL
Cmax, geometric mean (geometric CV%) [5, 10]: 659.1 (21.0) ng/mL
t1/2, geometric mean (geometric CV%) [5, 10]: 12.79 (29.0)^e h
tmax, median (minimum–maximum) [5, 10]: 3.0 (0.5 – 6.0) h
AUC0–τ, geometric mean (geometric CV%) [5, 10]: 5,968 (20.0) ng×h/mL
AUC of metabolite relative to apremilast ([5]; plasma, day 5): ~ 1.7 fold
Cmax of metabolite relative to apremilast ([5]; plasma, day 5): ~ 1.25 fold
pharmacological activity ([6]; glucuronide metabolites): not pharmacologically active
half-life ([6]; humans): ~ 16 hours
metabolite to total radioactivity ratio ([6]; humans): ~ 39%
